Laboratory results: PubChem BioAssay AID179 (DTP/NCI, 2004)
Values joined by “and” are separate entries in the source; they are usually repeats but may differ in a detail not shown here. Equal entries are not always repeated. Active and inactive are the calls of the source.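 Rule for the calls: active = compounds giving half or more protection of infected cells from virus-caused growth loss, again on retest; inactive = the rest.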 Where a SMILES comes first, the peptide text is derived from it.

Tested on: CEM cells HIV-1 protection, formazan growth assay
Experiment: NCI AIDS Antiviral Assay
Details: for IC50: measured here: growth of uninfected CEM cells
In short: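 Screen of anti-HIV-1 activity in human CEM cells using a formazan-based growth measurement at five drug concentrations. Hits with 50% or greater protection were repeated, and confirmation required reproducible complete protection.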

SMILES | EC50 | IC50 [µM] | outcome
COc1ccc(-n2c(C)nc3ccc(NC4OCC(OC(C)=O)C(OC(C)=O)C4OC(C)=O)cc3c2=O)cc1 (stereo not drawn) | > 200 µM | 123 | –
CONC(C)=O | > 200 µM | > 200 | –
Cc1cccc(CC(Cc2c(C)cccc2C(=O)O)C(=O)O)c1 (stereo not drawn) | > 200 µM | > 200 | –
N#CC(=N)c1ncn(-c2ccccc2N)c1N | > 200 µM | > 200 | –
O=C1c2cccc([N+](=O)[O-])c2C(=O)c2c1oc1ccc3ccccc3c21 | > 200 µM | > 200 | –
CC1(C)CC(=O)C(C(CC(c2ccccc2)c2cc3c(cc2O)OCO3)C2=C(O)CC(C)(C)CC2=O)=C(O)C1 (stereo not drawn) | > 200 µM | 112 | –
c1cc[c]([Sn]([O]c2cccc3cccnc23)([O]c2cccc3cccnc23)[c]2ccccc2)cc1 | – | – | inactive
Cc1cn(C(=O)NC23CC4CC(CC(C4)C2)C3)c(=O)[nH]c1=O | > 100 µM | 51.3 | –
CC(C)=CCOc1cc(NC(=S)c2ccoc2C)ccc1Cl | 0.0759 µM | 30.2 | –
CC(=O)c1cccc2c1CC1(C2)Cc2ccc3c(c2C1=O)CCC3 (stereo not drawn) | > 200 µM | > 200 | –
c1ccc2c(c1)[nH]c1nc3cc(-c4ccc5nc6c(nc5c4)[nH]c4ccccc46)ccc3nc12 | > 200 µM | 110 | –
O=c1[nH]nc(-c2ccccc2)n1O | > 200 µM | > 200 | –
O=C(OCCNC(=O)N1CCOCC1)OCCNC(=O)N1CCOCC1 | > 200 µM | > 200 | –
Cc1cc2c(c(C#N)c1C)NC(=O)CN=C2c1ccccc1F | 70.8 µM | > 200 | –
CCOC(=O)c1[nH]c2c(cc(C(=O)C(F)(F)F)c3ccccc32)c1C(F)(F)F | > 17.8 µM | > 17.8 | –
CC(CNc1ccc(Cl)cc1)(CNc1ccc(Cl)cc1)[N+](=O)[O-] | > 14.8 µM | > 14.8 | –
O=[N+]([O-])c1c(O)c2nonc2c2nn(-c3ccccc3)nc12 | > 200 µM | 120 | –
CN(C)CCCCC1c2ccccc2Sc2ccccc21 | > 200 µM | 8.71 | –
COc1cc(C(c2c(O)c3ccccc3oc2=O)N2CCCC2)cc(OC)c1OC (stereo not drawn) | > 200 µM | 107 | –
Cc1ccc(-c2n[nH]c(=O)[nH]2)cc1[N+](=O)[O-] | > 200 µM | > 200 | –
NCCc1nc2ccccc2[nH]1 | > 200 µM | > 200 | –
CCN(C(=O)N[C@H](C(=O)N[C@@H](CSC)C(=O)N[C@@H](C)C(=O)OC)C(C)C)c1ccccc1 | – | – | inactive

SMILES | EC50 | IC50 [µM] | outcome
CN1CCN(c2[nH]c(=O)n(Cc3ccccc3)c(=S)c2C#N)CC1 | > 200 µM | > 200 | –
CCCc1nc(N)nc(C(=O)Nc2cccc(C(F)(F)F)c2)c1CC | > 708 µM | > 708 | –
CCOC(=O)C1=C(C(=O)OCC)C2c3ccccc3C=CN2C(C(=O)OCC)=C(SC)S1 (stereo not drawn) | > 7.94 µM | > 7.94 | –
N#CCCC(C=O)(CCC#N)CCC#N | > 200 µM | > 200 | –
CCN(CC)CCNC(=O)c1ccc(C)c(OCc2ccccc2)c1[N+](=O)[O-] | > 200 µM | 33.9 | –
Nc1nc(N)c(CCCCc2ccccc2)c(N)n1 | – | – | inactive
CC(=O)OCC(OC(C)=O)C(OC(C)=O)C(/C=N\Nc1nc2ccccc2c(=O)[nH]1)=N\Nc1nc2ccccc2c(=O)[nH]1 (stereo not drawn) | > 200 µM | > 200 | –
O=C1OC(C2Cc3ccc4c(c3C2=O)CCCC4)c2ccccc21 (stereo not drawn) | > 200 µM | 33.9 | –
CNCCS(=O)(=O)O | > 200 µM | > 200 | –
COc1ccc(/C=N/O)cc1OC | > 1380 µM | 776 | –
COc1ccc([C@@H]2C[C@@H]3C(=O)OC(=O)[C@@H]3c3c2c2ccccc2n3C)cc1 | > 52.5 µM | > 52.5 | –
Cc1cccc2c(N)c3cccc(C(=O)NCCCNCCN)c3nc12 | > 0.2 µM | 0.12 | –
CC1(C)CCC[C@@]2(C)C1CCC1(C)C(CCc3ccoc3)/C(=C/OS(=O)(=O)O)CCC12 (stereo partly drawn) (tested in a mixture with another compound) | > 145 µM | > 145 | –
Brc1cn2[n+](c1)[B-]n1cc(Br)c[n+]1[B-]2 | > 200 µM | 138 | –
CCCCCCCCCCCCNC1(C)CNCCCNCCNCCCNC1 | > 251 µM | 1.41 | –
N#CC1=C(N)Oc2cc(O)cc(O)c2C1c1ccccc1 (stereo not drawn) | > 200 µM | > 100 | –
COC(=O)[C@@H](COC(=O)/C=C/c1ccc(OC(C)=O)c(OC(C)=O)c1)NC(=O)/C=C/c1ccc(OC(C)=O)c(OC(C)=O)c1 | > 100 µM | 19.1 | –
COc1cccc(C2CCCC(C#N)C2=N)c1OC (stereo not drawn) | > 200 µM | 126 | –
CC1CCN(SSc2nc3ccccc3s2)CC1 | 45.7 µM | 112 | –
OC1CC(O)O[C@H](c2ccccc2)C1 (stereo partly drawn) | – | – | inactive
C[C@H]1C[C@H]2[C@@H]3CCC4=CC(=O)C=C[C@]4(C)[C@@]3(F)[C@@H](O)C[C@]2(C)[C@H]1O | – | – | inactive
OC(c1ccsc1)c1cc2ccccc2s1 (stereo not drawn) | > 200 µM | 107 | –

SMILES | EC50 | IC50 [µM] | outcome
COC1=C(C)C(=O)C(=O)c2ccc(C)nc21 | – | – | inactive
O=C(/C(=C\c1ccc(Cl)cc1)c1ccccc1)c1ccccc1 | > 11.7 µM | > 11.7 | –
CC1OC(OC2CC(O)(C(=O)CO)Cc3c(O)c4c(c(O)c32)C(=O)c2ccccc2C4=O)CC(N)C1O (stereo not drawn) | > 0.2 µM | 0.0631 | –
NS(=O)(=O)OCCCCCCCOS(N)(=O)=O | > 871 µM | 13.5 | –
CCCCCCCCCCCCCCCCOC1OC(COC(C)=O)C(OC(C)=O)C(OC(C)=O)C1OC(C)=O (stereo not drawn) | > 12.6 µM | > 12.6 | –
O=C1c2ccccc2C(=O)N1N1CC1Br (stereo not drawn) | > 200 µM | > 200 | –
CC(=O)n1nc(C)c(-c2onc3ccc(Cl)cc23)c1C | 40.7 µM | 44.7 | –
Cc1ccc(-c2cc(O)c3nc4ccccc4n3c2)cc1 | > 200 µM | > 200 | –
COc1ccc(Cc2c(N)[nH]c(=O)[nH]c2=O)cc1 | > 200 µM | > 200 | –
COc1ccccc1/C=C(\NC(=O)c1ccccc1)c1nc2ccccc2[nH]1 | > 97.7 µM | 47.9 | –
CC1=C(C(=O)Nc2ccc([N+](=O)[O-])cc2)C(c2ccc(N(C)C)cc2)C(C(=O)Nc2ccc([N+](=O)[O-])cc2)=C(C)N1 | > 17.8 µM | > 17.8 | –
CC(=O)C1CCC2C1(C)CC1OC13C21C=CC2(CC(O)CCC23C)C2C(=O)OC(=O)C21 (stereo not drawn) | > 302 µM | > 302 | –
COc1ccc(-c2ccccc2)cc1S | > 200 µM | > 200 | –
CC(=O)OC1COC(c2ccccc2)OC1C1OC(c2ccccc2)OCC1OC(C)=O (stereo not drawn) | > 200 µM | > 200 | –
[N-]=[N+]=NC1(c2ccccc2)C(=O)Nc2ccccc2C1=O (stereo not drawn) | > 58.9 µM | 30.2 | –
COC1=Nc2ccccc2S(=O)(=O)C=C1 | > 398 µM | 0.813 | –
O=C(O)Cc1ccc2c(c1)C(=O)c1ccccc1CO2 | – | – | inactive
O=C(CC(=O)c1cccc([N+](=O)[O-])c1)C(=O)Nc1ccccc1 | > 417 µM | > 417 | –
Cc1nnc2sc(C(=O)O)nn12 | > 200 µM | > 200 | –
O=C(CC(C(=O)c1ccc(F)cc1)c1ccsc1)c1cccs1 (stereo not drawn) | > 200 µM | > 200 | –
COC[n+]1cc2cc(OC)c(OC)cc2c2ccc3cc(OC)c(OC)cc3c21 | > 31.6 µM | > 31.6 | –
Cc1cc2ncn(-c3nc4ccccc4nc3C(C#N)S(C)(=O)=O)c2cc1C (stereo not drawn) | > 646 µM | 57.5 | –

SMILES | EC50 | IC50 [µM] | outcome
CN1C(N)=NC(=O)/C1=C/c1ccccc1 | > 200 µM | 115 | –
CCc1ccc(C2=C(O)C(=O)C(c3ccccc3)=C(O)C2=O)cc1 | > 87.1 µM | 44.7 | –
CC(C)CC(NC(=O)C(Cc1ccc(O)cc1)NC(=O)C1CCCN1C(=O)C(NC(=O)C(CO)NC(=O)C(CCCCN)NC(=O)C(NC(=O)C(N)CCC(=O)O)C(C)C)C(C)O)C(=O)NC(CO)C(=O)NC(CCCCN)C(=O)O (stereo not drawn) (H-EVKSTPYLSK-OH; configuration not given here) | – | – | inactive
Clc1ccccc1C[P+](c1ccccc1)(c1ccccc1)c1ccccc1 | > 200 µM | 4.57 | –
c1ccc(C2=Nc3ccccc3C(c3ccccc3)=Nc3ccccc32)cc1 | > 72.4 µM | > 72.4 | –
O=c1[nH]nc(Cc2ccccc2)n1-n1cnnc1 | > 200 µM | > 200 | –
O=C(NC(CSSCC(NC(=O)c1cnc2ccccc2n1)C(=O)O)C(=O)O)c1cnc2ccccc2n1 (stereo not drawn) | > 200 µM | > 200 | –
CC(=O)Oc1cc(/C=C(\C#N)C(=O)NCCCCNC(=O)/C(C#N)=C/c2cc(OC(C)=O)c(OC(C)=O)c(OC(C)=O)c2)cc(OC(C)=O)c1OC(C)=O | > 200 µM | 21.9 | –
CCOP(=O)(OCC)C(Nc1cccc(F)c1)c1ccc(N(C)C)cc1 (stereo not drawn) | > 200 µM | 97.7 | –
Cc1ccc(N2CCc3c(C)c(C#N)c4nc5ccccc5n4c32)cc1 | > 200 µM | > 200 | –
[N-]=[N+]=NCC(CO)OCn1cc(Cc2cccc(OCc3ccccc3)c2)c(=O)[nH]c1=O (stereo not drawn) | – | – | inactive
Fc1cc(F)c(F)c(S)c1F | – | – | active
COCP1(=S)OC(C)CCN1C(C)C (stereo not drawn) | > 200 µM | 112 | –
CC(=O)c1c(-c2ccc(Cl)cc2)c(C#N)c(=S)n(C2OC(CO)C(O)C(O)C2O)c1C (stereo not drawn) | > 200 µM | 44.7 | –
Cn1c2ccccc2n2c3ccccc3c(=O)c(C#N)c12 | > 200 µM | 2.57 | –
Cc1nc2c(nc1C)C(=O)C=CC2=O | > 200 µM | 11.5 | –
CC(C#N)N(C(C)C#N)N(C)C (stereo not drawn) | – | – | inactive
CC(=O)OCC1OC(Sc2nc(-c3ccc(C)cc3)c(C#N)c(=O)n2C2OC(COC(C)=O)C(OC(C)=O)C(OC(C)=O)C2OC(C)=O)C(OC(C)=O)C(OC(C)=O)C1OC(C)=O (stereo not drawn) | > 100 µM and 69.2 µM | > 100 | –
CC(=O)OCC1OC(SC2=NC(=O)CS2)C(OC(C)=O)C(OC(C)=O)C1OC(C)=O (stereo not drawn) | > 200 µM | 74.1 | inactive
CC1CC2C(=O)N(c3ccccc3)C(=O)C2c2[nH]c3ccccc3c21 (stereo not drawn) | – | – | inactive
Cc1ccc(C(=O)C2C=C(c3ccc(C)cc3)SC3C=CCC32)cc1 (stereo not drawn) | > 200 µM | 14.8 | –
